In ChEMBL document CHEMBL4665849, “Synthesis and biological evaluation of imidazoline derivatives as potential CNS and CVS agents” (Bioorg Med Chem Lett, 2020):
Activity calls are given as the source filed them. No cut-off for these calls is given here.

Assays:
Mus musculus [1] = assay: Modulation of cardiovascular activity in mouse assessed as inhibition of carotid occlusion-induced pressure response at 2.5 mg/kg; type: functional, organism-based
[2] = Toxicity in mouse; type: organism-based; conditions: in vivo, read-out: ALD50
Mus musculus [3] = assay: Antiaggressive activity in mouse assessed as reduction in foot shock induced fighting behavior by measuring fighting count at 10 mg/kg, ip (reference value: 6.6 to 24.3 counts); type: functional
Mus musculus [4] = assay: Hypotensive activity in mouse assessed as decrease in delayed blood pressure at 2.5 mg/kg; type: functional
Mus musculus [5] = assay: Modulation of cardiovascular activity in mouse assessed as potentiation of norepinephrine induced pressure response at 2.5 mg/kg; type: functional, organism-based
Mus musculus [6] = assay: Antidepressant activity in mouse assessed as total mean swimming time time at 5 mg/kg, ip (reference value: 2.08 to 3.12 min); type: functional
Mus musculus [7] = assay: Hypotensive activity in mouse assessed as decrease in immediate blood pressure at 2.5 mg/kg; type: functional
Mus musculus [8] = assay: Analgesic activity in mouse assessed as maximum change in tail flick latency time at 10 mg/kg (reference value: 0.7 secs); type: functional
Mus musculus [9] = assay: Hypotensive activity in mouse assessed as decrease in heart rate at 2.5 mg/kg; type: functional
Mus musculus [10] = assay: Analgesic activity in mouse assessed as time duration at which maximum change in tail flick latency occurs at 10 mg/kg (reference value: 60 mins); type: functional
Mus musculus [11] = assay: Modulation of cardiovascular activity in mouse assessed as inhibition of norepinephrine induced pressure response at 2.5 mg/kg; type: functional, organism-based
Mus musculus [12] = assay: Antidepressant activity in mouse assessed as total mean swimming time at 15 mg/kg (reference value: 2.98 min); type: functional
Mus musculus [13] = species: Mus musculus; conditions: dose 10.0 mg/kg
Description: Modulation of cardiovascular activity in mouse assessed as inhibition of norepinephrine induced pressure response at 10 mg/kg

Mus musculus [14] = species: Mus musculus; conditions: dose 10.0 mg/kg; remark: listed apart in the source
Description: Modulation of cardiovascular activity in mouse assessed as inhibition of carotid occlusion-induced pressure response at 10 mg/kg

CC1=N/C(=C\c2ccccc2)C(=O)O1
inhibition (Mus musculus [1]): Active
LD50 [2]: > 500 mg/kg
Activity (Mus musculus [3]): 6 Counts
Activity (Mus musculus [4]): 40 mmHg
Activity (Mus musculus [5]): Active
Time (Mus musculus [6]): 1.72 min
Activity (Mus musculus [7]): 25 mmHg
Time (Mus musculus [8]): 1.3 s
Activity (Mus musculus [9]): 36 bpm
Time (Mus musculus [10]): 60 min

CC1=N/C(=C\c2ccoc2)C(=O)O1
inhibition (Mus musculus [1]): inactive
LD50 [2]: > 500 mg/kg
Activity (Mus musculus [3]): 6 Counts
Activity (Mus musculus [4]): inactive
Activity (Mus musculus [5]): inactive
Time (Mus musculus [6]): 2.64 min
Activity (Mus musculus [7]): inactive
Time (Mus musculus [8]): 8.8 s
Activity (Mus musculus [9]): inactive
inhibition (Mus musculus [11]): inactive
Time (Mus musculus [10]): 15 min

CC1=N/C(=C\c2ccc(N(C)C)cc2)C(=O)N1c1ccc(OCC(O)CNc2ccc(Cl)cc2)cc1 (configuration not stated)
inhibition (Mus musculus [1]): Active
LD50 [2]: > 500 mg/kg
Activity (Mus musculus [3]): 4.8 Counts
Activity (Mus musculus [4]): 30 mmHg
Activity (Mus musculus [5]): Active
Time (Mus musculus [6]): 0.84 min
Activity (Mus musculus [7]): 15 mmHg
Time (Mus musculus [8]): 0.9 s
Activity (Mus musculus [9]): 21 bpm
Time (Mus musculus [10]): 30 min

CC1=N/C(=C\c2ccccc2)C(=O)N1c1ccc(OCC(O)CNc2ccc(Cl)cc2)cc1 (configuration not stated)
inhibition (Mus musculus [1]): Active
LD50 [2]: > 200 mg/kg
Activity (Mus musculus [3]): 11.3 Counts
Activity (Mus musculus [4]): 17 mmHg
Activity (Mus musculus [5]): Active
Time (Mus musculus [6]): 1.6 min
Activity (Mus musculus [7]): 50 mmHg
Time (Mus musculus [8]): 4.5 s
Activity (Mus musculus [9]): 6 bpm
Time (Mus musculus [10]): 60 min

CC1=N/C(=C\c2ccc(N(C)C)cc2)C(=O)N1c1ccc(OCC2CO2)cc1 (configuration not stated)
inhibition (Mus musculus [1]): Active
LD50 [2]: > 500 mg/kg
Activity (Mus musculus [3]): 10.3 Counts
Activity (Mus musculus [4]): 28 mmHg
Time (Mus musculus [6]): 1.31 min
Activity (Mus musculus [7]): 60 mmHg
Time (Mus musculus [8]): 3.8 s
Activity (Mus musculus [9]): 24 bpm
inhibition (Mus musculus [11]): Active
Time (Mus musculus [10]): 30 min

CC1=N/C(=C\c2ccc(N(C)C)cc2)C(=O)N1c1ccc(O)cc1
inhibition (Mus musculus [1]): Active
LD50 [2]: > 500 mg/kg
Activity (Mus musculus [3]): 1.6 Counts
Activity (Mus musculus [4]): 50 mmHg
Activity (Mus musculus [5]): Active
Time (Mus musculus [6]): 0.42 min
Activity (Mus musculus [7]): 25 mmHg
Time (Mus musculus [8]): 0.1 s
Activity (Mus musculus [9]): 27 bpm
Time (Mus musculus [10]): 30 min

O=C1/C(=C/c2ccoc2)N=C(CCN2CCOCC2)N1c1ccc(O)cc1
inhibition (Mus musculus [1]): Active
LD50 [2]: > 1000 mg/kg
Activity (Mus musculus [3]): 6.6 Counts
Activity (Mus musculus [4]): 20 mmHg
Activity (Mus musculus [5]): Active
Time (Mus musculus [6]): 1.3 min
Activity (Mus musculus [7]): 35 mmHg
Time (Mus musculus [8]): 5.2 s
Activity (Mus musculus [9]): 18 bpm
Time (Mus musculus [10]): 30 min

CN(C)c1ccc(/C=C2\N=C(CCN3CCOCC3)N(c3ccc(O)cc3)C2=O)cc1
inhibition (Mus musculus [1]): Active
LD50 [2]: > 500 mg/kg
Activity (Mus musculus [3]): 4.5 Counts
Activity (Mus musculus [4]): 37 mmHg
Activity (Mus musculus [5]): Active
Time (Mus musculus [6]): 0.5 min
Activity (Mus musculus [7]): 15 mmHg
Time (Mus musculus [8]): 2.6 s
Activity (Mus musculus [9]): 30 bpm
Time (Mus musculus [10]): 60 min

CC1=N/C(=C\c2ccoc2)C(=O)N1c1ccc(O)cc1
inhibition (Mus musculus [1]): inactive
LD50 [2]: > 500 mg/kg
Activity (Mus musculus [3]): 4.6 Counts
Activity (Mus musculus [4]): 20 mmHg
Activity (Mus musculus [5]): inactive
Time (Mus musculus [6]): 2.52 min
Activity (Mus musculus [7]): 20 mmHg
Time (Mus musculus [8]): 1.3 s
Activity (Mus musculus [9]): 18 bpm
inhibition (Mus musculus [11]): inactive
Time (Mus musculus [10]): 60 min

O=C1/C(=C/c2ccccc2)N=C(CCN2CCOCC2)N1c1ccc(O)cc1
inhibition (Mus musculus [1]): Active
LD50 [2]: > 500 mg/kg
Activity (Mus musculus [3]): 21.6 Counts
Activity (Mus musculus [4]): 15 mmHg
Activity (Mus musculus [5]): inactive
Time (Mus musculus [6]): 0.84 min
Activity (Mus musculus [7]): 35 mmHg
Time (Mus musculus [8]): 4 s
Activity (Mus musculus [9]): 15 bpm
inhibition (Mus musculus [11]): inactive
Time (Mus musculus [10]): 60 min

CC1=N/C(=C\c2ccoc2)C(=O)N1c1ccc(OCC(O)CNc2ccc(Cl)cc2)cc1 (configuration not stated)
inhibition (Mus musculus [1]): inactive
LD50 [2]: > 500 mg/kg
Activity (Mus musculus [3]): 10.6 Counts
Activity (Mus musculus [4]): 20 mmHg
Activity (Mus musculus [5]): inactive
Time (Mus musculus [6]): 2.83 min
Activity (Mus musculus [7]): 25 mmHg
Time (Mus musculus [8]): 6.9 s
Activity (Mus musculus [9]): 27 bpm
inhibition (Mus musculus [11]): inactive
Time (Mus musculus [10]): 30 min

CC1=N/C(=C\c2ccc(N(C)C)cc2)C(=O)O1
inhibition (Mus musculus [1]): Active
LD50 [2]: > 500 mg/kg
Activity (Mus musculus [3]): 7.3 Counts
Activity (Mus musculus [4]): 15 mmHg
Activity (Mus musculus [5]): Active
Time (Mus musculus [6]): 1.5 min
Activity (Mus musculus [7]): inactive
Time (Mus musculus [8]): 1.8 s
Activity (Mus musculus [9]): inactive
Time (Mus musculus [10]): 60 min

CC1=N/C(=C\c2ccccc2)C(=O)N1c1ccc(OCC2CO2)cc1 (configuration not stated)
inhibition (Mus musculus [1]): Active
LD50 [2]: > 500 mg/kg
Activity (Mus musculus [3]): 6.3 Counts
Activity (Mus musculus [4]): 45 mmHg
Activity (Mus musculus [5]): Active
Time (Mus musculus [6]): 1.68 min
Activity (Mus musculus [7]): 25 mmHg
Time (Mus musculus [8]): 8.5 s
Activity (Mus musculus [9]): 21 bpm
Time (Mus musculus [10]): 60 min

CN(C)CCCN1c2ccccc2CCc2ccccc21 [IMIPRAMINE]
Time (Mus musculus [12]): 2.33 min

CC1=N/C(=C\c2ccoc2)C(=O)N1c1ccc(OCC2CO2)cc1 (configuration not stated)
inhibition (Mus musculus [1]): Active
LD50 [2]: > 1000 mg/kg
Activity (Mus musculus [3]): 5 Counts
Activity (Mus musculus [4]): 20 mmHg
Activity (Mus musculus [5]): Active
Time (Mus musculus [6]): 1.14 min
Activity (Mus musculus [7]): 30 mmHg
Time (Mus musculus [8]): 6.4 s
Activity (Mus musculus [9]): 6 bpm
Time (Mus musculus [10]): 60 min

CC1=N/C(=C\c2ccccc2)C(=O)N1c1ccc(O)cc1
inhibition (Mus musculus [1]): Active
LD50 [2]: > 200 mg/kg
Activity (Mus musculus [3]): 8.6 Counts
Activity (Mus musculus [4]): 70 mmHg
Time (Mus musculus [6]): 2.74 min
Activity (Mus musculus [7]): 15 mmHg
Time (Mus musculus [8]): 6.4 s
Activity (Mus musculus [9]): 12 bpm
inhibition (Mus musculus [11]): Active
Time (Mus musculus [10]): 60 min

Clc1cccc(Cl)c1NC1=NCCN1
inhibition (Mus musculus [13]): Active
inhibition (Mus musculus [14]): Active
